Source: the supplement of paper PMC11208160

Experiment: recombinant UMI read abundance after kanamycin selection (control-corrected) (log10(CPM+1)); higher = more efficient recombination; extreme values may be limits of the assay; sequences stand for … in AGTGCAGAGAAAATCGGCCAGTTTTCTCTGCCTGCAGTCCGCATGCCGTGGGACCCCTTGGGTTCTAACCTGTTGCCTAGATTTATGCAGCGGACTGCCTTTCTCCCAAAGTGATAAACCGG…AGGTTGGTTTCACT; site = the 11-nt donor
In short: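 Pooled Escherichia coli screen of donor and donor-binding-loop pairs for the IS621 bridge recombinase. Each pair sits with a 12-nt UMI on a plasmid carrying a promoterless kanamycin gene. The library was co-electroporated with a target plasmid encoding a fixed target and T7-inducible recombinase, then plated with IPTG (0.07 mM) plus kanamycin, or unselected, each in two replicates. Recombinant UMIs were PCR-amplified across the donor–target junction and sequenced. Counts became CPM, averaged over replicates, scaled by control-derived factors and reported as log10(CPM+1).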
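Further: IS621 bridge recombinase in Escherichia coli cells against a fixed T5 target plasmid.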

| Sequence | recombinant UMI read abundance (log10) |
| --- | --- |
| CTCCCTACATGGACCGGTTTTCCCGGTAATCCGTATTTGAG (site CTCCCGACTCT) | 0.0234 |
| CTCCCTACATGGACCGGTTTTCCCGGTAATCCGTATTTGAG (site CTCCCTACTAT) | 0.455 |
| CTCCCTACATGGACCGGTTTTCCCGGTAATCCGTATTTGAG (site CTCCCTACTCA) | 0.0198 |
| CTCCCTACATGGACCGGTTTTCCCGGTAATCCGTATTTGAG (site CTCCCTACTCC) | 0.0101 |
| CTCCCTACATGGACCGGTTTTCCCGGTAATCCGTATTTGAG (site CTCCCTACTCG) | 0.00797 |
| CTCCCTACATGGACCGGTTTTCCCGGTAATCCGTATTTGAG (site CTCCCTACTCT) | 0.248 |
| CTCCCTACATGGACCGGTTTTCCCGGTAATCCGTATTTGAG (site CTCCCTACTGT) | 0 |
| CTCCCTACATGGACCGGTTTTCCCGGTAATCCGTATTTGAG (site CTCCCTACTTT) | 0.0136 |
| CTCCCTACATGGACCGGTTTTCCCGGTAATCCGTATTTGAG (site CTCCCTCCTCT) | 0.00493 |
| CTCCCTACATGGACCGGTTTTCCCGGTAATCCGTATTTGAG (site CTCCCTGCTCT) | 0.0117 |
| CTCCCTACATGGACCGGTTTTCCCGGTAATCCGTATTTGAG (site CTCCCTTCTCT) | 0.0166 |
| CTCCCTACATGGACCGGTTTTCCCGGTAATCCGTATTTGAG (site CTCCGTACTCT) | 0.0179 |
| CTCCCTACATGGACCGGTTTTCCCGGTAATCCGTATTTGAG (site CTCCTTACTCT) | 0.00587 |
| CTCCCTACATGGACCGGTTTTCCCGGTAATCCGTATTTGAG (site CTCGCTACTCT) | 0.0283 |
| CTCCCTACATGGACCGGTTTTCCCGGTAATCCGTATTTGAG (site CTCTCTACTCT) | 0.00795 |
| CTCCCTACATGGACCGGTTTTCCCGGTAATCCGTATTTGAG (site CTGCCTACTCT) | 0.0259 |
| CTCCCTACATGGACCGGTTTTCCCGGTAATCCGTATTTGAG (site CTTCCTACTCT) | 0.0102 |
| CTCCCTACATGGACCGGTTTTCCCGGTAATCCGTATTTGAG (site GTCCCTACTCT) | 0.0115 |
| CTCCCTACATGGACCGGTTTTCCCGGTAATCCGTATTTGAG (site TTCCCTACTCT) | 0.00609 |
| CTCCCTGCATGGACCGGTTTTCCCGGTAATCCGTATTTGAG (site CTCCCTACTCT) | 0.664 |
| CTCCCTGCATGGACCGGTTTTCCCGGTAATCCGTATTTGAG (site CTCCCTCCTCT) | 0.00848 |
| CTCCCTGCATGGACCGGTTTTCCCGGTAATCCGTATTTGAG (site CTCCCTGCTCT) | 1.16 |
| CTCCCTGCATGGACCGGTTTTCCCGGTAATCCGTATTTGAG (site CTCCCTTCTCT) | 0.325 |

| Sequence | recombinant UMI read abundance (log10) |
| --- | --- |
| CTCCCTTCATGGACCGGTTTTCCCGGTAATCCGTATTTGAG (site CTCCCTACTCT) | 0.0118 |
| CTCCCTTCATGGACCGGTTTTCCCGGTAATCCGTATTTGAG (site CTCCCTCCTCT) | 0.0285 |
| CTCCCTTCATGGACCGGTTTTCCCGGTAATCCGTATTTGAG (site CTCCCTGCTCT) | 0.00848 |
| CTCCCTTCATGGACCGGTTTTCCCGGTAATCCGTATTTGAG (site CTCCCTTCTCT) | 0.898 |
| CTCCGAACATGGACCGGTTTTCCCGGTAATCCGTATTTGCG (site CTCCGAACTCG) | 0.829 |
| CTCCGTGCATGGACCGGTTTTCCCGGTAATCCGTATTTGGC (site CTCCGTGCTGC) | 1.87 |
| CTCGAAACATGGACCGGTTTTCCCGGTAATCCGTATTTGCA (site CTAGAAACTTG) | 0 |
| CTCGAAACATGGACCGGTTTTCCCGGTAATCCGTATTTGCA (site CTCGAAACTTG) | 2.34 |
| CTCGAAACATGGACCGGTTTTCCCGGTAATCCGTATTTGCA (site CTGGAAACTTG) | 0 |
| CTCGAAACATGGACCGGTTTTCCCGGTAATCCGTATTTGCA (site CTTGAAACTTG) | 0 |
| CTCGAACCATGGACCGGTTTTCCCGGTAATCCGTATTTGAC (site CTCGAACCTGT) | 0 |
| CTCGAATCATGGACCGGTTTTCCCGGTAATCCGTATTTGAA (site CTCGAATCTTT) | 1.86 |
| CTCGAGTCATGGACCGGTTTTCCCGGTAATCCGTATTTGTG (site CTCGAGTCTCA) | 1.87 |
| CTCGATACATGGACCGGTTTTCCCGGTAATCCGTATTTGCT (site CTCGATACTAG) | 2.37 |
| CTCGCTACATGGACCGGTTTTCCCGGTAATCCGTATTTGAT (site CTCGCTACTAT) | 1.7 |
| CTCGGATCATGGACCGGTTTTCCCGGTAATCCGTATTTGGA (site CTCGGATCTTC) | 1.56 |
| CTCGGGCCATGGACCGGTTTTCCCGGTAATCCGTATTTGAG (site CTCGGGCCTCT) | 0 |
| CTCGGTCCATGGACCGGTTTTCCCGGTAATCCGTATTTGCA (site CACGGTCCTTG) | 0.779 |
| CTCGGTCCATGGACCGGTTTTCCCGGTAATCCGTATTTGCA (site CCCGGTCCTTG) | 1.6 |
| CTCGGTCCATGGACCGGTTTTCCCGGTAATCCGTATTTGCA (site CGCGGTCCTTG) | 0.00731 |
| CTCGGTCCATGGACCGGTTTTCCCGGTAATCCGTATTTGCA (site CTCGGTCCTTG) | 0.517 |
| CTCGTCGCATGGACCGGTTTTCCCGGTAATCCGTATTTGGG (site CTCGTCGCTCC) | 0.0128 |
| CTCTACACATGGACCGGTTTTCCCGGTAATCCGTATTTGCT (site ATCTACACTAG) | 0.294 |

| Sequence | recombinant UMI read abundance (log10) |
| --- | --- |
| CTCTACACATGGACCGGTTTTCCCGGTAATCCGTATTTGCT (site CACTACACTAG) | 1.63 |
| CTCTACACATGGACCGGTTTTCCCGGTAATCCGTATTTGCT (site CCCTACACTAG) | 2.09 |
| CTCTACACATGGACCGGTTTTCCCGGTAATCCGTATTTGCT (site CGCTACACTAG) | 0.891 |
| CTCTACACATGGACCGGTTTTCCCGGTAATCCGTATTTGCT (site CTATACACTAG) | 0.775 |
| CTCTACACATGGACCGGTTTTCCCGGTAATCCGTATTTGCT (site CTCAACACTAG) | 0 |
| CTCTACACATGGACCGGTTTTCCCGGTAATCCGTATTTGCT (site CTCCACACTAG) | 2.02 |
| CTCTACACATGGACCGGTTTTCCCGGTAATCCGTATTTGCT (site CTCGACACTAG) | 0.288 |
| CTCTACACATGGACCGGTTTTCCCGGTAATCCGTATTTGCT (site CTCTAAACTAG) | 0 |
| CTCTACACATGGACCGGTTTTCCCGGTAATCCGTATTTGCT (site CTCTACACTAA) | 0.362 |
| CTCTACACATGGACCGGTTTTCCCGGTAATCCGTATTTGCT (site CTCTACACTAC) | 0.0172 |
| CTCTACACATGGACCGGTTTTCCCGGTAATCCGTATTTGCT (site CTCTACACTAG) | 2.41 |
| CTCTACACATGGACCGGTTTTCCCGGTAATCCGTATTTGCT (site CTCTACACTAT) | 0.916 |
| CTCTACACATGGACCGGTTTTCCCGGTAATCCGTATTTGCT (site CTCTACACTCG) | 0.238 |
| CTCTACACATGGACCGGTTTTCCCGGTAATCCGTATTTGCT (site CTCTACACTGG) | 1.37 |
| CTCTACACATGGACCGGTTTTCCCGGTAATCCGTATTTGCT (site CTCTACACTTG) | 1.15 |
| CTCTACACATGGACCGGTTTTCCCGGTAATCCGTATTTGCT (site CTCTACCCTAG) | 0 |
| CTCTACACATGGACCGGTTTTCCCGGTAATCCGTATTTGCT (site CTCTACGCTAG) | 0.84 |
| CTCTACACATGGACCGGTTTTCCCGGTAATCCGTATTTGCT (site CTCTACTCTAG) | 0.78 |
| CTCTACACATGGACCGGTTTTCCCGGTAATCCGTATTTGCT (site CTCTAGACTAG) | 0.0131 |
| CTCTACACATGGACCGGTTTTCCCGGTAATCCGTATTTGCT (site CTCTATACTAG) | 0.00765 |
| CTCTACACATGGACCGGTTTTCCCGGTAATCCGTATTTGCT (site CTCTCCACTAG) | 0 |
| CTCTACACATGGACCGGTTTTCCCGGTAATCCGTATTTGCT (site CTCTGCACTAG) | 0.00734 |
